Data on 27 compounds can be found in US20070010671A1, “Novel quinazoline derivatives and methods of treatment related to the use thereof” (priority 2003, published 2007).

The target of this assay is MCH receptor (Homo sapiens, UniProt Q99705). Description: High throughput functional screening FLIPR/FDSS6000: inhibition of MCH-evoked intracellular Ca2+ changes. The class given is cell-based. The settings on record: class by percent of control at 10^-7 M or IC50. The gist of the method: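 Cells expressing a non-endogenous, constitutively active MCH receptor were loaded with 4 μM Fluo4-AM (with probenecid) for 1 hr at 37° C. Test compound was preincubated 3 min at 37° C before 50 nM MCH was added. The [Ca2+]i transient was read at Ex 488/Em 530 nm for 290 s.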

In the case of `CSc1ccc(NC(=S)NC[C@H]2CC[C@@H](Nc3nc(N(C)C)c4ccccc4n3)CC2)cc1` [compound 606], the class is given as 3 (Class 3: The value of percent of control at 10^−7 M was more than 60% or the value of IC50 was more than 200 nM.).

Consider `COc1ccc(NC(=S)NC[C@H]2CC[C@@H](Nc3nc(N(C)C)c4ccccc4n3)CC2)cc1` [compound 607], for which the class is given as 3 (Class 3: The value of percent of control at 10^−7 M was more than 60% or the value of IC50 was more than 200 nM.).

Consider `C=C(C)CNC(=S)NC[C@H]1CC[C@@H](Nc2nc(N(C)C)c3ccccc3n2)CC1` [compound 608], for which the class is reported as 3 (Class 3: The value of percent of control at 10^−7 M was more than 60% or the value of IC50 was more than 200 nM.).

Take `COc1ccccc1NC(=S)NC[C@H]1CC[C@@H](Nc2nc(N(C)C)c3ccccc3n2)CC1` [compound 609]: the class is 3 (Class 3: The value of percent of control at 10^−7 M was more than 60% or the value of IC50 was more than 200 nM.).

Consider `CNC(=S)NC[C@H]1CC[C@@H](Nc2nc(N(C)C)c3ccccc3n2)CC1` [compound 610], for which the class is recorded as 3 (Class 3: The value of percent of control at 10^−7 M was more than 60% or the value of IC50 was more than 200 nM.).

With `CN(C)c1nc(N[C@H]2CC[C@@H](CNC(=S)Nc3cccc4ccccc34)CC2)nc2ccccc12` [compound 611], the class was 3 (Class 3: The value of percent of control at 10^−7 M was more than 60% or the value of IC50 was more than 200 nM.).

Consider `CN(C)c1nc(N[C@H]2CC[C@@H](CNC(=S)Nc3cccc([N+](=O)[O-])c3)CC2)nc2ccccc12` [compound 612], for which the class is listed as 3 (Class 3: The value of percent of control at 10^−7 M was more than 60% or the value of IC50 was more than 200 nM.).

For `CN(C)c1nc(N[C@H]2CC[C@@H](CNC(=S)Nc3ccc([N+](=O)[O-])cc3)CC2)nc2ccccc12` [compound 613, N-[(cis-4-{[4-(dimethylamino)quinazolin-2-yl]amino}cyclohexyl)methyl]-N′-(4-nitrophenyl)thiourea], the class is reported as 2 (Class 2: The value of percent of control at 10^−7 M was from 40% to 60% or the value of IC50 was from 50 nM to 200 nM.).

Regarding `CN(C)c1nc(N[C@H]2CC[C@@H](CNC(=S)NC(C)(C)CC(C)(C)C)CC2)nc2ccccc12` [compound 614], the class was 3 (Class 3: The value of percent of control at 10^−7 M was more than 60% or the value of IC50 was more than 200 nM.).

Turning to `CN(C)c1nc(N[C@H]2CC[C@@H](CNC(=S)Nc3ccccc3)CC2)nc2ccccc12` [compound 615], the class was 3 (Class 3: The value of percent of control at 10^−7 M was more than 60% or the value of IC50 was more than 200 nM.).

For the compound `CN(C)c1nc(N[C@H]2CC[C@@H](CNC(=S)Nc3c(F)c(F)c(F)c(F)c3F)CC2)nc2ccccc12` [compound 616, N-[(cis-4-{[4-(dimethylamino)quinazolin-2-yl]amino}cyclohexyl)methyl]-N′-(pentafluorophenyl)thiourea], the class was 2 (Class 2: The value of percent of control at 10^−7 M was from 40% to 60% or the value of IC50 was from 50 nM to 200 nM.).

Take `CCCNC(=S)NC[C@H]1CC[C@@H](Nc2nc(N(C)C)c3ccccc3n2)CC1` [compound 617]: the class was 3 (Class 3: The value of percent of control at 10^−7 M was more than 60% or the value of IC50 was more than 200 nM.).

As for `CN(C)c1nc(N[C@H]2CC[C@@H](CNC(=S)Nc3cccc(C(F)(F)F)c3)CC2)nc2ccccc12` [compound 618], the class is recorded as 3 (Class 3: The value of percent of control at 10^−7 M was more than 60% or the value of IC50 was more than 200 nM.).

As to `COc1cc(NC(=S)NC[C@H]2CC[C@@H](Nc3nc(N(C)C)c4ccccc4n3)CC2)cc(OC)c1OC` [compound 619], the class is listed as 3 (Class 3: The value of percent of control at 10^−7 M was more than 60% or the value of IC50 was more than 200 nM.).

For `Cc1ccc(NC(=S)NC[C@H]2CC[C@@H](Nc3nc(N(C)C)c4ccccc4n3)CC2)cc1` [compound 621], the class is reported as 3 (Class 3: The value of percent of control at 10^−7 M was more than 60% or the value of IC50 was more than 200 nM.).

As for `Cc1ccccc1NC(=S)NC[C@H]1CC[C@@H](Nc2nc(N(C)C)c3ccccc3n2)CC1` [compound 622], the class was 3 (Class 3: The value of percent of control at 10^−7 M was more than 60% or the value of IC50 was more than 200 nM.).

`CN(C)c1nc(N[C@H]2CC[C@@H](CNC(=S)NC(C)(C)C)CC2)nc2ccccc12` [compound 623]: the class is 3 (Class 3: The value of percent of control at 10^−7 M was more than 60% or the value of IC50 was more than 200 nM.).

On to `CN(C)c1nc(N[C@H]2CC[C@@H](CNC(=S)Nc3ccccc3Br)CC2)nc2ccccc12` [compound 625], for which the class is 3 (Class 3: The value of percent of control at 10^−7 M was more than 60% or the value of IC50 was more than 200 nM.).

As for `CN(C)c1nc(N[C@H]2CC[C@@H](CNC(=S)Nc3ccccc3Cl)CC2)nc2ccccc12` [compound 626], the class was 3 (Class 3: The value of percent of control at 10^−7 M was more than 60% or the value of IC50 was more than 200 nM.).

Consider `CN(C)c1nc(N[C@H]2CC[C@@H](CNC(=S)NCCc3ccccc3)CC2)nc2ccccc12` [compound 627], for which the class is 3 (Class 3: The value of percent of control at 10^−7 M was more than 60% or the value of IC50 was more than 200 nM.).

For the compound `COc1ccc(NC(=S)NC[C@H]2CC[C@@H](Nc3nc(N(C)C)c4ccccc4n3)CC2)cc1OC` [compound 628], the class is listed as 3 (Class 3: The value of percent of control at 10^−7 M was more than 60% or the value of IC50 was more than 200 nM.).

In the case of `CCc1ccc(NC(=S)NC[C@H]2CC[C@@H](Nc3nc(N(C)C)c4ccccc4n3)CC2)cc1` [compound 629], the class is 3 (Class 3: The value of percent of control at 10^−7 M was more than 60% or the value of IC50 was more than 200 nM.).

For the compound `CSc1ccccc1NC(=S)NC[C@H]1CC[C@@H](Nc2nc(N(C)C)c3ccccc3n2)CC1` [compound 630], the class is recorded as 3 (Class 3: The value of percent of control at 10^−7 M was more than 60% or the value of IC50 was more than 200 nM.).

In the case of `CN(C)c1nc(N[C@H]2CC[C@@H](CNC(=S)Nc3ccccc3OC(F)(F)F)CC2)nc2ccccc12` [compound 631], the class was 2 (Class 2: The value of percent of control at 10^−7 M was from 40% to 60% or the value of IC50 was from 50 nM to 200 nM.).

Regarding `CN(C)c1nc(N[C@H]2CC[C@@H](CNC(=S)Nc3ccccc3C(F)(F)F)CC2)nc2ccccc12` [compound 632], the class was 3 (Class 3: The value of percent of control at 10^−7 M was more than 60% or the value of IC50 was more than 200 nM.).

Turning to `CN(C)c1nc(N[C@H]2CC[C@@H](CNC(=S)Nc3ccc(F)c(F)c3F)CC2)nc2ccccc12` [compound 633, N-[(cis-4-{[4-(dimethylamino)quinazolin-2-yl]amino}cyclohexyl)methyl]-N′-(2,3,4-trifluorophenyl)thiourea], the class was 2 (Class 2: The value of percent of control at 10^−7 M was from 40% to 60% or the value of IC50 was from 50 nM to 200 nM.).

As to `CN(C)c1nc(N[C@H]2CC[C@@H](CNC(=S)Nc3cccc(Cl)c3Cl)CC2)nc2ccccc12` [compound 634], the class is recorded as 3 (Class 3: The value of percent of control at 10^−7 M was more than 60% or the value of IC50 was more than 200 nM.).
